According to patent US8664220B2, “Polycyclic compounds as lysophosphatidic acid receptor antagonists” (Amira Pharmaceuticals, Inc., priority 2009, dated 2014):

molecular target: T1, human LPA1 (Homo sapiens, UniProt Q92633); assay: LPA1 calcium flux assay; format: cell-based; conditions: human LPA1 expressing CHO cells, stimulated with 10 nM LPA; read-out: HLPA1 Ca Flux IC50
T1 construct: the full-length cDNA for human LPA1 was obtained by PCR of the reverse transcription reaction; expressed in transfected cells
Procedure: Establishment of a CHO Cell Line Stably Expressing Human LPA1
A 1.1 kb cDNA encoding the human LPA1 receptor was cloned from human lung.
Human lung RNA (Clontech Laboratories, Inc. USA) was reverse transcribed using the RETROscript kit (Ambion, Inc.) and the full-length cDNA for human LPA1 was obtained by PCR of the reverse transcription reaction. The nucleotide sequence of the cloned human LPA1 was determined by sequencing and confirmed to be identical to the published human LPA1 sequence (An et al. Biochem. Biophys. Res. Commun. 231:619 (1997). The cDNA was cloned into the pcDNA5/FRT expression plasmid and transfected in CHO cells using lipofectamine 2000 (Invitrogen Corp., USA). Clones stably expressing human LPA1 were selected using hygromycin and identified as cells that show Ca-influx in response to LPA.
LPA1 and LPA3 Calcium Flux Assays
Human LPA1 or LPA3 expressing CHO cells are seeded at 20,000-45,000 cells per well in a 96-well poly-D-lysine coated plate one or two days before the assay. Prior to the assay, the cells are washed once with PBS and then cultured in serum-free media overnight. On the day of the assay, a calcium indicator dye (Calcium 4, Molecular Devices) in assay buffer (HBSS with Ca^2+ and Mg^2+ and containing 20 mM Hepes and 0.3% fatty-acid free human serum albumin) is added to each well and incubation continued for 1 hour at 37° C. 10 μl of test compounds in 2.5% DMSO are added to the cells and incubation continued at room temperature for 30 minutes. Cells are the stimulated by the addition of 10 nM LPA and intracellular Ca^2+ measured using the Flexstation 3 (Molecular Devices). IC50s are determined using Graphpad prism analysis of drug titration curves.

T1 sequence (Q92633 whole entry): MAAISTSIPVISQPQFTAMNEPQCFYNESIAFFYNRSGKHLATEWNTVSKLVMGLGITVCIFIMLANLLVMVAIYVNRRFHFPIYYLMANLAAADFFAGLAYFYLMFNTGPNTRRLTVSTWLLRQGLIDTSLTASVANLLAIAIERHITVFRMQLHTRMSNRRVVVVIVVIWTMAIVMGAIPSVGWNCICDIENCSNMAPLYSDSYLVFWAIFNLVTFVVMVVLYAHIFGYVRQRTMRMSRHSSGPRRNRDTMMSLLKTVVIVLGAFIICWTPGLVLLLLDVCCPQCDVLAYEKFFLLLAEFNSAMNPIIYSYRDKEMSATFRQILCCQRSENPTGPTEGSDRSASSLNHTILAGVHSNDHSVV

IC50 [µM] | Structure (SMILES)
< 0.3 | Cc1noc(-c2ccc(-c3ccc(C4(C(=O)O)CC4)cc3)cc2)c1Nc1cccc(-n2cccn2)n1 [Compound 1-123, 1-{4′-[3-Methyl-4-(6-pyrazol-1-yl-pyridin-2-ylamino)-isoxazol-5-yl]-biphenyl-4-yl}-cyclopropanecarboxylic acid]
< 0.3 | Cc1noc(-c2ccc(-c3ccc(C4(C(=O)O)CC4)cc3)cc2)c1Nc1cccc(-c2ccccc2C(F)(F)F)c1 [Compound 1-101, 1-{4′-[3-Methyl-4-(2′-trifluoromethyl-biphenyl-3-ylamino)-isoxazol-5-yl]-biphenyl-4-yl}-cyclopropanecarboxylic acid]
< 0.3 | Cc1noc(-c2ccc(-c3ccc(C4(C(=O)O)CC4)cc3)cc2)c1Nc1cccc(Sc2ccccc2)n1 [Compound 1-126, 1-{4′-[3-Methyl-4-(6-phenylsulfanyl-pyridin-2-ylamino)-isoxazol-5-yl]-biphenyl-4-yl}-cyclopropanecarboxylic acid]
< 0.3 | Cc1noc(-c2ccc(-c3ccc(C4(C(=O)O)CC4)cc3)cc2)c1Cn1nc(-c2ccccc2)oc1=N [Compound 1-11, 1-{4′-[4-(2-Imino-5-phenyl-[1,3,4]oxadiazol-3-ylmethyl)-3-methyl-isoxazol-5-yl]-biphenyl-4-yl}-cyclopropanecarboxylic acid]
< 0.3 | Cc1noc(-c2ccc(-c3ccc(C4(C(=O)O)CC4)cc3)cc2)c1Nc1cccc([S+]([O-])c2ccccc2)n1 (centres unmarked) [Compound 1-127, 1-{4′-[4-(6-Benzenesulfinyl-pyridin-2-ylamino)-3-methyl-isoxazol-5-yl]-biphenyl-4-yl}-cyclopropanecarboxylic acid]
< 0.3 | Cc1noc(-c2ccc(-c3ccc(C4(C(=O)O)CC4)cc3)cc2)c1C(O)c1nnc(Cc2ccccc2)o1 (centres unmarked) [Compound 1-30, 1-(4′-{4-[(5-Benzyl-[1,3,4]oxadiazol-2-yl)-hydroxy-methyl]-3-methyl-isoxazol-5-yl}-biphenyl-4-yl)-cyclopropanecarboxylic acid]
< 0.3 | Cc1noc(-c2ccc(-c3ccc(C(C)(C)C(=O)O)cc3)cc2)c1Nc1cccc(-c2ccccc2)n1 [Compound 1-133, 2-Methyl-2-{4′-[3-methyl-4-(6-phenyl-pyridin-2-ylamino)-isoxazol-5-yl]-biphenyl-4-yl}-propionic acid]
< 0.3 | CCc1noc(-c2ccc(-c3ccc(C4(C(=O)O)CC4)cc3)cc2)c1Nc1nnc(-c2ccccc2)o1 [Compound 2-2, 1-{4′-[3-Ethyl-4-(5-phenyl-[1,3,4]oxadiazol-2-ylamino)-isoxazol-5-yl]-biphenyl-4-yl}-cyclopropanecarboxylic acid]
< 0.3 | Cc1noc(-c2ccc(-c3ccc(C4(C(=O)O)CC4)cc3)cc2)c1C(O)c1cn(Cc2ccc(Cl)c(Cl)c2)nn1 (centres unmarked) [Compound 1-64, 1-[4′-(4-{[1-(3,4-Dichloro-benzyl)-1H-[1,2,3]triazol-4-yl]-hydroxy-methyl}-3-methyl-isoxazol-5-yl)-biphenyl-4-yl]-cyclopropanecarboxylic acid]
< 0.3 | Cc1noc(-c2ccc(-c3ccc(C4(C(=O)O)CC4)cc3)cc2)c1C(O)c1cccc(Cc2ccccc2)c1 (centres unmarked) [Compound 1-58, 1-(4′-{4-[(3-Benzyl-phenyl)-hydroxy-methyl]-3-methyl-isoxazol-5-yl}-biphenyl-4-yl)-cyclopropanecarboxylic acid]
1 to 50 | Cc1noc(-c2ccc(-c3ccc(C4(C(=O)O)CC4)cc3)cc2)c1C(O)c1cn(Cc2ccccc2C(F)(F)F)nn1 (centres unmarked) [Compound 1-56, 1-[4′-(4-{Hydroxy-[1-(2-trifluoromethyl-benzyl)-1H-[1,2,3]triazol-4-yl]-methyl}-3-methyl-isoxazol-5-yl)-biphenyl-4-yl]-cyclopropanecarboxylic acid]
< 0.3 | Cc1noc(-c2ccc(-c3ccc(C4(C(=O)O)CC4)cc3)cc2)c1Nc1cccc(OCC2CC2)n1 [Compound 1-154, 1-{4′-[4-(6-Cyclopropylmethoxy-pyridin-2-ylamino)-3-methyl-isoxazol-5-yl]-biphenyl-4-yl}-cyclopropanecarboxylic acid]
1 to 50 | Cc1noc(-c2ccc(-c3ccc(C4(C(=O)O)CC4)cc3)cc2)c1Nc1cccc(-c2nn[nH]n2)n1 [Compound 1-149, 1-(4′-{3-Methyl-4-[6-(2H-tetrazol-5-yl)-pyridin-2-ylamino]-isoxazol-5-yl}-biphenyl-4-yl)-cyclopropanecarboxylic acid]
< 0.3 | Cc1noc(-c2ccc(-c3ccc(C4(C(=O)O)CC4)cc3)cc2)c1C(O)c1cccc(Cc2ccccc2)n1 (centres unmarked) [Compound 1-69, 1-(4′-{4-[(6-Benzyl-pyridin-2-yl)-hydroxy-methyl]-3-methyl-isoxazol-5-yl}-biphenyl-4-yl)-cyclopropanecarboxylic acid]

The next lines start with the molecule.

Structure (SMILES) | IC50 [µM]
Cc1noc(-c2ccc(-c3ccc(C4(C(=O)NS(C)(=O)=O)CC4)cc3)cc2)c1C(O)c1cn(Cc2ccccc2)nn1 (single isomer, unassigned) [Compound 3-1, N-[1-(4′-{4-[(1-Benzyl-1H-[1,2,3]triazol-4-yl)-hydroxy-methyl]-3-methyl-isoxazol-5-yl}-biphenyl-4-yl)-cyclopropanecarbonyl]-methanesulfonamide] | < 0.3
Cc1noc(-c2ccc(-c3ccc(C4(C(=O)O)CC4)cc3)cc2)c1Nc1cccc(-c2ccccc2CN(C)C)c1 [Compound 1-117, 1-{4′-[4-(2′-Dimethylaminomethyl-biphenyl-3-ylamino)-3-methyl-isoxazol-5-yl]-biphenyl-4-yl}-cyclopropanecarboxylic acid] | < 0.3
Cc1noc(-c2ccc(-c3ccc(C4(CC(=O)O)CC4)cc3)cc2)c1NC(C)Cc1ccc(OCc2ccc(C(F)(F)F)cc2)cc1 (centres unmarked) [Compound 1-45, {1-[4′-(3-Methyl-4-{1-methyl-2-[4-(4-trifluoromethyl-benzyloxy)-phenyl]-ethylamino}-isoxazol-5-yl)-biphenyl-4-yl]-cyclopropyl}-acetic acid] | 0.3 to 1
Cc1noc(-c2ccc(-c3ccc(C4(C(=O)O)CC4)cc3)cc2)c1C(O)c1nnc(Cc2ccccc2)o1 (single isomer, unassigned) [Compound 1-35, 1-(4′-{4-[(5-Benzyl-[1,3,4]oxadiazol-2-yl)-hydroxy-methyl]-3-methyl-isoxazol-5-yl}-biphenyl-4-yl)-cyclopropanecarboxylic acid] | < 0.3
Cc1noc(-c2ccc(-c3ccc(C4(C(=O)O)CC4)cc3)cc2)c1C(O)c1cccc(-c2ccccc2)n1 (centres unmarked) [Compound 1-110, 1-(4′-{4-[Hydroxy-(6-phenyl-pyridin-2-yl)-methyl]-3-methyl-isoxazol-5-yl}-biphenyl-4-yl)-cyclopropanecarboxylic acid] | < 0.3
Cc1noc(-c2ccc(-c3ccc(C4(C(=O)O)CC4)cc3)cc2)c1Nc1cccc(N2CCOCC2)n1 [Compound 1-124, 1-{4′-[3-Methyl-4-(6-morpholin-4-yl-pyridin-2-ylamino)-isoxazol-5-yl]-biphenyl-4-yl}-cyclopropanecarboxylic acid] | < 0.3
Cc1noc(-c2ccc(-c3ccc(C4(C(=O)O)CC4)cc3)cc2)c1Nc1cccc(C(=O)NC2CC2)n1 [Compound 1-137, 1-{4′-[4-(6-Cyclopropylcarbamoyl-pyridin-2-ylamino)-3-methyl-isoxazol-5-yl]-biphenyl-4-yl}-cyclopropanecarboxylic acid] | < 0.3
Cc1noc(-c2ccc(-c3ccc(C4(C(=O)O)CC4)cc3)cc2)c1Nc1cccc(-c2cccc(C(N)=O)c2)n1 [Compound 1-144, 1-(4′-{4-[6-(3-Carbamoyl-phenyl)-pyridin-2-ylamino]-3-methyl-isoxazol-5-yl}-biphenyl-4-yl)-cyclopropanecarboxylic acid] | < 0.3
Cc1noc(-c2ccc(-c3ccc(C4(CC(=O)O)CC4)cc3)cc2)c1NC(C)c1cc(-c2ccccc2)no1 (centres unmarked) [Compound 1-42, [1-(4′-{3-Methyl-4-[1-(3-phenyl-isoxazol-5-yl)-ethylamino]-isoxazol-5-yl}-biphenyl-4-yl)-cyclopropyl]-acetic acid] | < 0.3
Cc1noc(-c2ccc(-c3ccc(C4(C(=O)O)CC4)cc3)cc2)c1Nc1nnc(Cc2ccccc2)o1 [Compound 1-83, 1-{4′-[4-(5-Benzyl-[1,3,4]oxadiazol-2-ylamino)-3-methyl-isoxazol-5-yl]-biphenyl-4-yl}-cyclopropanecarboxylic acid] | < 0.3
Cc1noc(-c2ccc(-c3ccc(C4(C(=O)O)CC4)cc3)cc2)c1NC(=O)c1cccc(-c2ccccc2CN(C)C)c1 [Compound 1-121, 1-(4′-{4-[(2′-Dimethylaminomethyl-biphenyl-3-carbonyl)-amino]-3-methyl-isoxazol-5-yl}-biphenyl-4-yl)-cyclopropanecarboxylic acid] | > 50
Cc1noc(-c2ccc(-c3ccc(C4(C(=O)O)CC4)cc3)cc2)c1Nc1nnc(-c2ccccc2)o1 [Compound 1-80, 1-{4′-[3-Methyl-4-(5-phenyl-[1,3,4]oxadiazol-2-ylamino)-isoxazol-5-yl]-biphenyl-4-yl}-cyclopropanecarboxylic acid] | < 0.3
